Measured values reported in patent publication US20060141010A1, “Coated preparations that contain at least one hydroformate” (Basf Aktiengesellschaft, priority 2003, published 2006).

System: one-day-old chickens
Assay: Feeding experiment using coated trisodium hydrogenformate preparations in a standard wheat-soy diet
Type: in vivo
Conditions: after 21 days, vs negative control (standard wheat-soy diet)
Experimental: A feeding experiment was carried out using one-day-old chickens. Trisodium hydrogenformate was coated with 0, 15 and 30% by weight hydrogenated soybean oil. Per dose, 2 repetitions were carried out, and 10 chickens were used in each feeding experiment.
A standard wheat-soy diet was used as negative control. The coated trisodium hydrogenformate preparations were added to the diet in exchange for cellulose (1% in the negative control).
Feeding results compared with the negative control [%] after 21 days.

[1] = 0.4 % by weight trisodium hydrogenformate in diet
[2] = 0.8 % by weight trisodium hydrogenformate in diet

For `O=CO.O=C[O-].O=C[O-].O=C[O-].[Na+].[Na+].[Na+]` [trisodium hydrogenformate], the “FCR (feed conversion rate), feeding results compared with the negative control” value [1] was “+2%”, the “Weight gain, feeding results compared with the negative control” value [1] was “+2%” and the “FCR (feed conversion rate), feeding results compared with the negative control” value [2] was “+5%”. The “Weight gain, feeding results compared with the negative control” value [2] was “+2%”.
